What was measured:
[1] = target: T1, human thyroid receptor beta ligand-binding domain (LBD) (Homo sapiens, UniProt P10828); test: TR-FRET thyroid receptor beta coactivator assay (THR biochemical assay, Assay 1); settings: for EC50: THR-beta, TR-FRET coactivator assay, read-out: Activity category Assay 1 (EC50, THR-beta agonist); for Emax: Table 5, Assay 1, THRβ, read-out: Activity category Assay 1 THRβ (Emax)
T1 construct: purchased Invitrogen
T1 sequence (P10828 217-461 limits assumed): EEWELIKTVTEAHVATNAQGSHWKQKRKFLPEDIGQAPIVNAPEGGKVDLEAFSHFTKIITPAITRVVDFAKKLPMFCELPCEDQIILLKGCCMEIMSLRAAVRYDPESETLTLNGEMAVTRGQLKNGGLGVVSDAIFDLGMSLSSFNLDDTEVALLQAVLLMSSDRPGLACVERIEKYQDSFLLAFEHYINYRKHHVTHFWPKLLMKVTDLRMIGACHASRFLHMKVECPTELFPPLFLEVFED
From the text: (§1) The TR-FRET thyroid receptor beta coactivator assay was used with slight, optimized modifications of the manufacturer's protocol (Invitrogen). The assay uses a terbium-labeled anti-GST antibody, a glutathione-S-transferase (GST) tagged human thyroid receptor, beta or alpha, ligand-binding domain (LBD), and a fluorescein labeled SRC2-2 coactivator peptide. […] The energy transfer is detected as an increase in the fluorescence emission of the fluorescein acceptor, and a decrease in the fluorescence emission of the terbium donor. The assay is performed in a 384-well black plate in a final volume of 20 μL. Serial dilution of various test agonists was performed in DMSO (1% final DMSO concentration) and added to the test plate. Thyroid receptor beta LBD is added to the plate at a final concentration of 1 nM, followed by the mixture of the fluorescein labeled SRC2-2 coactivator peptide, and the terbium-labeled anti-GST antibody at final concentrations of 200 nM and 2 nM respectively. The assay is incubated for 1 hr at rt protected from light.

[2] = target: T2, human thyroid receptor alpha ligand-binding domain (LBD) (Homo sapiens, UniProt P10827); test: TR-FRET thyroid receptor alpha coactivator assay (THR biochemical assay, Assay 1); settings: for EC50: Table 4, THR-alpha, read-out: Activity category Assay 1 (EC50, THR-alpha agonist activity); for Emax: Table 5, THRα, read-out: Activity category Assay 1 THRα (Emax)
T2 construct: purchased Invitrogen
From the text: as §1

T2 sequence (P10827 163-410 isoform P10827-2 limits assumed, other chains not shown): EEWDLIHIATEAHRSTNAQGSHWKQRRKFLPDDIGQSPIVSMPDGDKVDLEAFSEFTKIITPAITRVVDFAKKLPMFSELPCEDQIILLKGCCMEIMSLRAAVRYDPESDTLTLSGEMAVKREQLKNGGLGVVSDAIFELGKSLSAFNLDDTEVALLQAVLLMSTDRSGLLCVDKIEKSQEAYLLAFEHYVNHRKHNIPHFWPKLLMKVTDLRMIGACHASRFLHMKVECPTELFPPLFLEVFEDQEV

EC50 [1]	Emax [1]	EC50 [2]	Emax [2]	Structure (SMILES)
> 25 µM	< 50%	> 25 µM	< 50%	Nc1nn(-c2cc(Cl)c(Oc3cc(-c4ccc5nnccc5c4)c(=O)[nH]n3)c(Cl)c2)c(=O)[nH]c1=O [Compound 108]
> 25 µM	< 50%	> 25 µM	< 50%	Nc1nn(-c2cc(Cl)c(Oc3cc(-c4ccc5ccnnc5c4)c(=O)[nH]n3)c(Cl)c2)c(=O)[nH]c1=O [Compound 110]
> 25 µM	< 50%	> 25 µM	< 50%	Cc1cncc(-c2cc(=O)[nH]nc2Oc2c(Cl)cc(-n3ncc(=O)[nH]c3=O)cc2Cl)c1 [Compound 138]
1 to 25 µM	< 50%	> 25 µM	< 50%	Cc1cc(-c2cc(Oc3c(Cl)cc(-n4ncc(=O)[nH]c4=O)cc3Cl)n[nH]c2=O)ccn1 [Compound 141]
> 25 µM	< 50%	> 25 µM	< 50%	O=c1cnn(-c2cc(Cl)c(Oc3cc(-c4ccc5sccc5c4)c(=O)[nH]n3)c(Cl)c2)c(=O)[nH]1 [Compound 135]
1 to 25 µM	< 50%	1 to 25 µM	< 50%	O=c1cc(-c2ccc3sccc3c2)c(Oc2c(Cl)cc(-n3ncc(=O)[nH]c3=O)cc2Cl)n[nH]1 [Compound 136]
> 25 µM	< 50%	> 25 µM	< 50%	Cc1cc(-c2cc(=O)[nH]nc2Oc2c(Cl)cc(-n3ncc(=O)[nH]c3=O)cc2Cl)ccn1 [Compound 142]

More lines, now with the values behind:

Structure (SMILES)	EC50 [1]	Emax [1]	EC50 [2]	Emax [2]
Nc1nn(-c2cc(Cl)c(Oc3cc(C4Cc5ccccc54)c(=O)[nH]n3)c(Cl)c2)c(=O)[nH]c1=O (single isomer, unassigned) [Compound 165, 6-amino-2-(4-((5-(bicyclo[4.2.0]octa-1(6),2,4-trien-7-yl)-6-oxo-1,6-dihydropyridazin-3-yl)oxy)-3,5-dichlorophenyl)-1,2,4-triazine-3,5(2H,4H)-dione]	< 0.05 µM	< 50%	0.25 to 1 µM	< 50%
Cc1cc(-c2nn(C)c(=O)[nH]c2=O)cc(C)c1Cc1ccc2[nH]cc(C(C)C)c2n1 [Compound 162, 6-[4-[(3-isopropyl-1H-pyrrolo[3,2-b]pyridin-5-yl)methyl]-3,5-dimethyl-phenyl]-2-methyl-1,2,4-triazine-3,5-dione]	< 0.05 µM	50 to 75%	0.05 to 0.25 µM	< 50%
C[C@@H](c1cc(Oc2c(Cl)cc(-n3nc(N)c(=O)[nH]c3=O)cc2Cl)n[nH]c1=O)C1CCC1 [Compound 167]	0.05 to 0.25 µM	< 50%	1 to 25 µM	< 50%
N#C[C@@H]1CC[C@H]1c1cc(Oc2c(Cl)cc(-n3nc(N)c(=O)[nH]c3=O)cc2Cl)n[nH]c1=O (relative stereo) [Compound 105]	1 to 25 µM	< 50%	1 to 25 µM	< 50%
Cc1cccc(-c2cc(=O)[nH]nc2Oc2c(Cl)cc(-n3nc(N)c(=O)[nH]c3=O)cc2Cl)c1 [Compound 70-A, 6-amino-2-(3,5-dichloro-4-((6-oxo-4-(m-tolyl)-1,6-dihydropyridazin-3-yl)oxy)phenyl)-1,2,4-triazine-3,5(2H,4H)-dione]	> 25 µM	< 50%	> 25 µM	< 50%
C[C@H](c1cc(Oc2c(Cl)cc(-n3nc(N)c(=O)[nH]c3=O)cc2Cl)n[nH]c1=O)C1CCC1 [Compound 168]	< 0.05 µM	< 50%	0.05 to 0.25 µM	50 to 75%
Nc1nn(-c2cc(Cl)c(Oc3n[nH]c(=O)cc3-c3cnc4ccccc4c3)c(Cl)c2)c(=O)[nH]c1=O [Compound 133]	0.25 to 1 µM	< 50%	> 25 µM	< 50%
Nc1nn(-c2cc(Cl)c(Oc3n[nH]c(=O)cc3-c3ccn4cncc4c3)c(Cl)c2)c(=O)[nH]c1=O [Compound 127]	> 25 µM	< 50%	> 25 µM	< 50%

Reference: patent US12180192B2, “Modulators of THR-β and methods of use thereof” (ALIGOS THERAPEUTICS, INC., priority 2019, dated 2024)
